≈ marks a conversion by molar mass, not a printed value.
Columns and labels:
H22 cells = assay: Cytotoxicity in H22 cell culture (MTT assay); type: cell-based, mouse; conditions: 24 hrs, concentration as DOX
Experimental: A volume of 180 µl of H22 cells were seeded in 96-well plates (4,000 cells/well).
Control cells were cultured in medium only. Thiazolyl blue tetrazolium bromide (25 µl of 5 mg/ml) (MTT, AMRESCO Inc, Solon, OH) was added to each well and incubated for 4 hrs. The culture medium was removed from the wells and replaced with 150 µl dimethylsulfoxide (DMSO, BioTek, Winooski, VT). After shaking gently for 15 min at 25°C, the DMSO solution was transferred to centrifugation tubes and centrifuged at 2,000 rpm for 5 min. The absorbance was then measured at 570 nm with an ELx-800 Universal Microplate Reader (BioTek, Winooski, VT). […] The half-maximal inhibitory concentration (IC50; drug concentration corresponding to 50% growth inhibition) was calculated using SigmaPlot 9.0 software (Systat Software Inc., San Jose, CA) and the 4-parameter logistic function standard curve analysis for dose response.

H22 hepatoma cell tumor = assay: Chemotherapy experiments in H22 tumor-bearing mice (tumor volume, life span, histology); conditions: no EMF
Experimental: The mouse hepatoma H22 cell line was grown in RPMI-1640 medium supplemented with 10% FBS, 100 units/ml of penicillin and 100 µg/ml of streptomycin at 37°C and 5% CO2. BALB/c mice (4- to 8-week-old males, body weight 26±5 g) were housed (one mouse per cage) under specific pathogen-free conditions, maintained on a 12-hour light-dark cycle with controlled temperature (20–24°C), and were given sterile food. The tumor-bearing mouse model was generated by subcutaneous injection of 4×10^5 H22 cells with 50 µl phosphate-buffered saline (PBS) into the shaved right flank. The treatment protocol required the mice to be anesthetized and these were anesthetized with ketamine (80 mg/kg) and xylazine (3 mg/kg), and acepromazine (2 mg/kg) via intraperitoneal injection (IP). If an additional dose was needed, ketamine alone was used.
The doses were normalized to 5 mg DOX per kg body weight when the tumor volume reached 50 to 100 mm^3 (∼10 days after tumor cell inoculation). The volume for 150 µl was injected via the tail vein and the treatment was carried out three times without interval in three weeks.
Chemotherapy experiments: H22 tumor-bearing mice (4 groups; for each group, n = 18) were used and the treatment was performed as described above. The antitumor effect was assessed by the following steps: 1) six mice were sacrificed for each group on the 24th day following treatment. The tumors were harvested and fixed in 10% formalin, embedded in paraffin and sectioned (5 µm coupes) for hematoxylin–eosin (HE) staining for microscopic examination purposes; 2) tumor sizes (4 groups; for each group, n = 12) were measured by a caliper before therapy and every three days after treatment using the following equation: tumor volume (V, mm^3) = (tumor length×tumor width)^2/2. The life span of each animal was also recorded. The relative tumor volume was calculated from V = V/V0, where V0 is the tumor volume at the beginning of treatment. The endpoints of the antitumor effect were evaluated by the degree of tumor growth inhibition and life span after treatment.

[1] = DOX biodistribution in H22 tumor-bearing mice; type: in vivo, BALB/c mice; conditions: 5 mg DOX/kg, tail vein, 0.5 hr after treatment, no EMF
Experimental: The blood, main organs (heart, lung, liver, spleen, kidney), and the tumor of each mouse were harvested for quantitative analysis of the DOX biodistribution. The blood was centrifuged at 5,000 rpm for 1 min at 4°C and the supernatant was obtained by adding 180 µl methanol and 20 µl of inner standard solution (0.2 mg/ml daunorubicin solution dissolved in methanol) to a 2-ml tube containing 200 µl plasma. For the organ (heart, lung, liver, spleen, kidney) and tumor samples, the frozen tissues were weighed and homogenized at 4°C in 0.9% NaCl to a total volume of 10 ml, and centrifuged at 5,000 rpm for 1 min at 4°C to retrieve the supernatant.
A total volume of 200 µl of the plasma, or the supernatant of homogenized tissue, or the tumor samples was then mixed with 180 µl methanols and 20 µl inner standard solutions, followed by 0.4 g sodium sulfate. The mixture was homogenized by vortexing for 5 min and then incubated at 4°C for 1 hr. After the 1-hr incubation, the mixture was centrifuged at 12,000 rpm for 15 min. […] Finally, the percent-injected dose per gram tissue of the tissue and tumor samples was calculated.

## COc1cccc2c1C(=O)c1c(O)c3c(c(O)c1C2=O)C[C@@](O)(C(=O)CO)C[C@@H]3O[C@H]1C[C@H](N)[C@H](O)[C@H](C)O1 [DOX, doxorubicin]
H22 cells
  IC50 (cell inhibition rate): 0.530 ± 0.010 µg/mL (≈ 0.975 µM)
H22 hepatoma cell tumor; 5 mg DOX/kg iv three times
  life span of tumor-bearing mice: 31.3 ± 3.31 days
H22 hepatoma cell tumor; 24th day following treatment
  tumor histology (HE staining): A few necrotic cells were observed
H22 hepatoma cell tumor; 21 days after start of treatment, 5 mg DOX/kg iv three times
  relative tumor volume (V/V0): 7.08±1.68
H22 hepatoma cell tumor; following treatment for 33 days
  survival rate of tumor-bearing mice: 33.3%
[1]
  DOX concentrations in the other organs (heart, lung and kidney): Very low concentrations
  percent injected dose per gram tissue in blood: 1.07%
  percent injected dose per gram tissue in livers: 0.402%
  percent injected dose per gram tissue in spleens: 0.634%
  percent injected dose per gram tissue in tumors: 0.741%
